Results reported in patent US8906868B2, “Aminoglycoside derivatives” (Rempex Pharmaceuticals, Inc., priority 2010, dated 2014).
≈ marks a conversion by molar mass, not a printed value. Read-outs that look alike come from different tables or passages of the source.

Columns and labels:
[1] = system: Escherichia coli (ATCC 25922); assay: MIC, broth microdilution; conditions: Escherichia coli
[2] = system: Human kidney cortex proximal tubule cells (HK-2); assay: Aminoglycoside cytotoxicity in HK-2 cells (Alamar Blue); type: cell-based
Procedure: (§1) Human kidney cortex proximal tubule cells (HK-2) were purchased from ATCC and maintained according to manufacturer's recommendations in Keratinocyte Serum-Free Media (SFM; Invitrogen), with 0.05 mg/ml bovine pituitary extract and 5 ng/ml of Epidermal growth factor.
(§2) Solutions of aminoglycosides at a concentration of 50 mg/mL (both control and novel test compounds) were prepared in sterile deionized water. Before treatment of cells, the concentrated drug solutions were diluted to the appropriate concentration in Keratinocyte SFM {20, 10, 5, 2.5, 1.25, 0.6, 0.3, and 0 mM}. Pentamidine was used as a positive control.
(§3) HK-2 cells were seeded at 2.5*10^4 cells/well density in 96-well plates in Keratinocyte SFM and placed in a 37° C. tissue culture CO2 incubator. […]. Each treatment was performed in duplicate. […] Drug solutions were aspirated and replaced with 0.1 ml of 5% Alamar Blue (Abd Serotec) cell proliferation reagent in Keratinocyte SFM. Plates were read on a Molecular Devices Gemini EM fluorometer pre-warmed at 37° C. at […]. Plates were read at 0 and 4 hrs, and were incubated at 37° C. in a CO2 incubator in between reads. The fluorescence signal at the 0 h timepoint was subtracted from that at 4 h to account for background fluorescence.
(§4) The cytotoxicity data were reported as the amount of drug producing a 50% decrease in Alamar Blue signal relative to the no drug treatment control.

[3] = as above; type: cell-based, Human; conditions: human
Procedure: as §1, §2, §3, §4

ACM1006 acc(6′)-Ib = assay: microbe, parasite or virus in culture; type: cell-based, Acinetobacter baumannii; conditions: Acinetobacter baumannii
Outline: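 Broth microdilution per CLSI guidelines: compounds serially diluted 2-fold in cation-adjusted Mueller Hinton broth, inoculum 5×10^5 CFU/ml from overnight colonies, 18 hours at 35° C. MIC read by turbidity at 600 nm and confirmed visually.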

ECM6009 aac(3)-II = assay: microbe, parasite or virus in culture; type: cell-based, Escherichia coli; conditions: Escherichia coli
Outline: (§5)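 Broth microdilution per CLSI M7-A7 in cation-adjusted Mueller Hinton broth, 2-fold serial dilutions, inoculum 5×10^5 CFU/ml from overnight colonies. Incubated 18 hours at 35° C. MIC read as turbidity at 600 nm, confirmed visually.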

ECM6011 aph(3′)-I = assay: microbe, parasite or virus in culture; type: cell-based, Escherichia coli; conditions: Escherichia coli
Outline: as §5

ECM6006 aph(3′)-III = assay: microbe, parasite or virus in culture; type: cell-based, Escherichia coli; conditions: Escherichia coli
Outline: as §5

ECM6010 ant(2″)-I = assay: microbe, parasite or virus in culture; type: cell-based, Escherichia coli; conditions: Escherichia coli
Outline: as §5

[4] = system: Pseudomonas aeruginosa pa1060 ant(2″); assay: MIC, strains expressing aminoglycoside modifying enzymes; type: cell-based; conditions: read-out: MIC Pseudomonas aeruginosa pa1060 ant(2″)
Procedure: (§6) To compare microbiological activity of the test compounds, minimum inhibitory concentrations (MIC.s) were determined. Antibiotic MICs were obtained using the broth microdilution method according to Clinical and Laboratory Standards Institute (CLSI) approved guidelines (Methods for dilution antimicrobial susceptibility tests for bacteria that grow aerobically; approved standard—7th ed. CLSI document M7-A7. Clinical and Laboratory Standards Institute, Wayne, Pa., incorporated herein by reference in its entirety). Antibiotics were dissolved as specified by CLSI (Performance standards for antimicrobial susceptibility testing; Seventeenth informational supplement. CLSI document M100-S17. Clinical and Laboratory Standards Institute, Wayne, Pa., incorporated herein by reference in its entirety), and were serially diluted 2-fold in cation adjusted Mueller Hinton Broth (CaMHB) at 2× concentration. Bacterial inoculums were prepared in CaMHB by suspension of a colony from an agar plate that was prepared the previous day to obtain a final concentration of 5×10^5CFU/ml. The plates were incubated for 18 hours at 35° C. […] MIC.s were determined by reading the turbidity of plate wells using a SpectraMax Plus384 plate reader (Molecular Devices, Sunnyvale, Calif., USA) at 600 nm and were confirmed by visual inspection.

[5] = system: Acinetobacter baumannii ACM1008 aac(3)-Ia; assay: as above; type: cell-based; conditions: read-out: MIC Acinetobacter baumannii ACM1008 aac(3)-Ia
Procedure: as §6

[6] = system: Escherichia coli EC1003 aac(3)I; assay: as above; type: cell-based; conditions: read-out: MIC Escherichia coli EC1003 aac(3)I
Procedure: as §6

[7] = system: Escherichia coli ECM6012 armA; assay: as above; type: cell-based; conditions: ECM6012ARMA, read-out: MIC Escherichia coli ECM6012 armA
Procedure: as §6

[8] = system: Pseudomonas aeruginosa pa1062 aac(3)-I; assay: as above; type: cell-based; conditions: read-out: MIC Pseudomonas aeruginosa pa1062 aac(3)-I
Procedure: as §6

[9] = system: Pseudomonas aeruginosa pa1061 aac(6′) (no efflux); assay: as above; type: cell-based; conditions: read-out: MIC Pseudomonas aeruginosa pa1061 aac(6′) (no efflux)
Procedure: as §6

[10] = system: Escherichia coli ECM6004 aac(2′); assay: as above; type: cell-based; conditions: read-out: MIC Escherichia coli ECM6004 aac(2′)
Procedure: as §6

[11] = system: Providencia stuartii PSM1000 aac(2′); assay: as above; type: cell-based; conditions: read-out: MIC Providencia stuartii PSM1000 aac(2′)
Procedure: as §6

[12] = system: Escherichia coli ECM6008 aac(3)-I, ant(3″); assay: as above; type: cell-based; conditions: read-out: MIC Escherichia coli ECM6008 aac(3)-I, ant(3″)
Procedure: as §6

[13] = system: Acinetobacter spp. AB1051 aph(3′)VI; assay: as above; type: cell-based; conditions: read-out: MIC Acinetobacter spp. AB1051 aph(3′)VI
Procedure: as §6

[14] = system: Escherichia coli ECM6005 aac(3)-II, aph(3′)-II; assay: as above; type: cell-based; conditions: read-out: MIC Escherichia coli ECM6005 aac(3)-II, aph(3′)-II
Procedure: as §6

[15] = ATCC25922, read-out: Compound MIC on Bacterial Strains: E. coli ATCC 25922
[16] = ATCC25922, read-out: Compound MIC on Bacterial Strains: ECM6000 ATCC 25922
[17] = ATCC25922, read-out: Compound MIC on Bacterial Strains: Escherichia coli ECM6000 ATCC 25922
[18] = ATCC25922, read-out: MIC Escherichia coli ECM6025 ATCC 25922
[19] = Table 4, read-out: Compound MIC on Bacterial Strains: Acinetobacter baumannii ACM1006 acc(6′)-Ib
[20] = Table 8, read-out: MIC Acinetobacter baumannii ACM1006 aac(6′)-Ib
[21] = read-out: Compound MIC on Bacterial Strains: ECM6009 aac(3)-II
[22] = read-out: MIC Escherichia coli ECM6009 aac(3)-II, aph(3′)
[23] = read-out: Compound MIC on Bacterial Strains: ECM6011 aph(3′)-I
[24] = read-out: MIC Escherichia coli ECM6011 aph(3′)-I
[25] = read-out: Compound MIC on Bacterial Strains: ECM6006 aph(3′)-III
[26] = read-out: MIC Escherichia coli ECM6006 aph(3′)-III
[27] = read-out: Compound MIC on Bacterial Strains: ECM6010 ant(2″)-I
[28] = read-out: MIC Escherichia coli ECM6010 ant(2″)

| SMILES | MIC [1, 15] [µg/mL] | MIC [1, 16] [µg/mL] | MIC [1, 17] [µg/mL] | MIC [1, 18] [µg/mL] | IC50 at 24 h [3] [mM] | MIC (ACM1006 acc(6′)-Ib; [19]) [µg/mL] | MIC (ACM1006 acc(6′)-Ib; [20]) [µg/mL] | MIC (ECM6009 aac(3)-II; [21]) [µg/mL] | MIC (ECM6009 aac(3)-II; [22]) [µg/mL] | MIC (ECM6011 aph(3′)-I; [23]) [µg/mL] | MIC (ECM6011 aph(3′)-I; [24]) [µg/mL] | MIC (ECM6006 aph(3′)-III; [25]) [µg/mL] | MIC (ECM6006 aph(3′)-III; [26]) [µg/mL] | MIC (ECM6010 ant(2″)-I; [27]) [µg/mL] | MIC (ECM6010 ant(2″)-I; [28]) [µg/mL] | MIC [4] [µg/mL] | MIC [5] [µg/mL] | MIC [6] [µg/mL] | MIC [7] [µg/mL] | MIC [8] [µg/mL] | also measured |
| --- | --- | --- | --- | --- | --- | --- | --- | --- | --- | --- | --- | --- | --- | --- | --- | --- | --- | --- | --- | --- | --- |
| CN[C@@H]1C(O)[C@@H](OC2C(O)C(O[C@H]3O[C@H](CNC[C@@H](O)CO)CCC3N)[C@@H](N)C[C@H]2NC(=O)[C@@H](O)CN)OCC1(C)O (stereo partly drawn) [Compound 44] | < 1 | < 1 | < 1 | < 1 | > 20 | 1 to 8 (≈ 1.64 to 13.1 µM) | 1 to 8 (≈ 1.64 to 13.1 µM) | < 1 | < 1 | < 1 | < 1 | < 1 | 1 to 8 (≈ 1.64 to 13.1 µM) | < 1 | < 1 | < 1 | 1 to 8 (≈ 1.64 to 13.1 µM) | < 1 | > 8 | > 8 | cytotoxicity in HK-2 cells (in words) [2]: essentially non-cytotoxic; MIC [9]: < 1 µg/mL; MIC [10]: < 1 µg/mL; MIC [11]: > 8 µg/mL; MIC [12]: < 1 µg/mL; MIC [13]: 1 to 8 µg/mL (≈ 1.64 to 13.1 µM); MIC [14]: < 1 µg/mL |
| CN[C@@H]1[C@@H](O)[C@@H](O[C@@H]2[C@@H](O)[C@H](O[C@H]3O[C@H](CNC[C@H](O)CO)CC[C@H]3N)[C@@H](N)C[C@H]2NC(=O)[C@@H](O)CN)OC[C@]1(C)O [Compound 45, (S)-3-amino-N-((1R,2S,3S,4R,5S)-5-amino-4-((2R,3R,6S)-3-amino-6-(((S)-2,3-dihydroxypropylamino)methyl)tetrahydro-2H-pyran-2-yloxy)-2-((2R,3R,4R,5R)-3,5-dihydroxy-5-methyl-4-(methylamino)tetrahydro-2H-pyran-2-yloxy)-3-hydroxycyclohexyl)-2-hydroxypropanamide] | < 1 | < 1 | < 1 | < 1 | 10 | 1 to 8 (≈ 1.64 to 13.1 µM) | 1 to 8 (≈ 1.64 to 13.1 µM) | < 1 | < 1 | < 1 | < 1 | < 1 | 1 to 8 (≈ 1.64 to 13.1 µM) | < 1 | < 1 | 1 to 8 (≈ 1.64 to 13.1 µM) | 1 to 8 (≈ 1.64 to 13.1 µM) | < 1 | > 8 | > 8 | fold more cytotoxic than compound 44 ([2]; human, 48 h): at least 2 fold; MIC [9]: < 1 µg/mL; MIC [10]: < 1 µg/mL; MIC [11]: > 8 µg/mL; MIC [12]: 1 to 8 µg/mL (≈ 1.64 to 13.1 µM); MIC [13]: 1 to 8 µg/mL (≈ 1.64 to 13.1 µM); MIC [14]: < 1 µg/mL |
